Tests used:
hB^0AT1-ACE2 complex = target: T1, hB^0AT1-ACE2 complex (Homo sapiens, UniProt Q695T7); test: binding to crude membranes, filtration and LC-MS/MS
T1 construct: gene SLC6A19; wild type; N-terminal FLAG on B0AT1, Strep-tag after ACE2 signal peptide; FreeStyle 293-F; with Angiotensin-converting enzyme 2

[1] = target: T2, mB^0AT1 (mouse SLC6A19) co-expressed with mouse Collectrin (Mus musculus, UniProt Q9D687); test: inhibition of d5-phenylalanine uptake, LC-MS/MS; type: cell-based
T2 construct: mSLC6A19-T2A-mCollectrin synthetic construct, doxycycline-inducible in JTREx-CHO cells; with Collectrin
T2 sequence (Q9D687 1-634): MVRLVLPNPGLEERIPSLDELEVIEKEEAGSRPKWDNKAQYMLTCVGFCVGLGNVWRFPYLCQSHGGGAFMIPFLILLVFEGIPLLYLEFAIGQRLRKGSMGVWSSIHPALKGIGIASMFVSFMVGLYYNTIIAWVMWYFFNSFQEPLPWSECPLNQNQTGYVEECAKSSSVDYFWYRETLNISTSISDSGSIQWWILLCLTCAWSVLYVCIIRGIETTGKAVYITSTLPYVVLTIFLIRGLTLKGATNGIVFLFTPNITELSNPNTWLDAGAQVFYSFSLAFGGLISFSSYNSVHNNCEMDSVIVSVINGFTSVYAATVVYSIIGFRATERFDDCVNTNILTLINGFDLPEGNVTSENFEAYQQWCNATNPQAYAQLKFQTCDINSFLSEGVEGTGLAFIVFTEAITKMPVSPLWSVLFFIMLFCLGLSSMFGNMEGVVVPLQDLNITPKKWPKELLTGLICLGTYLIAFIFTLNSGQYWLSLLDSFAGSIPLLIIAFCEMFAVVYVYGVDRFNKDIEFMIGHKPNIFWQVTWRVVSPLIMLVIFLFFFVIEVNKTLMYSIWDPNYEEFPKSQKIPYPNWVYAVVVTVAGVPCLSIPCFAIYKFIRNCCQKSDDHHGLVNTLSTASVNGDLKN
T2 sequence (Q9ESG4 15-222 partner): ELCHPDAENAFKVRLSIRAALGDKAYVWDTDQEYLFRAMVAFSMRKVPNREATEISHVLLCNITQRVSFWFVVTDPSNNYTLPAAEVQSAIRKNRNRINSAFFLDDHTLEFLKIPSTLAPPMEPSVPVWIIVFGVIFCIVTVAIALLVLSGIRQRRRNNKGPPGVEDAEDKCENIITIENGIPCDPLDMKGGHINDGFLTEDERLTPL

[2] = target: T3, hB^0AT1 (human SLC6A19) co-expressed with human Collectrin (Homo sapiens, UniProt Q695T7); test: inhibition of d5-phenylalanine uptake, LC-MS/MS; type: cell-based
T3 construct: hSLC6A19-T2A-hCollectrin synthetic construct, wild type, doxycycline-inducible in JTREx-CHO cells; with Collectrin
T3 sequence (Q695T7 1-634): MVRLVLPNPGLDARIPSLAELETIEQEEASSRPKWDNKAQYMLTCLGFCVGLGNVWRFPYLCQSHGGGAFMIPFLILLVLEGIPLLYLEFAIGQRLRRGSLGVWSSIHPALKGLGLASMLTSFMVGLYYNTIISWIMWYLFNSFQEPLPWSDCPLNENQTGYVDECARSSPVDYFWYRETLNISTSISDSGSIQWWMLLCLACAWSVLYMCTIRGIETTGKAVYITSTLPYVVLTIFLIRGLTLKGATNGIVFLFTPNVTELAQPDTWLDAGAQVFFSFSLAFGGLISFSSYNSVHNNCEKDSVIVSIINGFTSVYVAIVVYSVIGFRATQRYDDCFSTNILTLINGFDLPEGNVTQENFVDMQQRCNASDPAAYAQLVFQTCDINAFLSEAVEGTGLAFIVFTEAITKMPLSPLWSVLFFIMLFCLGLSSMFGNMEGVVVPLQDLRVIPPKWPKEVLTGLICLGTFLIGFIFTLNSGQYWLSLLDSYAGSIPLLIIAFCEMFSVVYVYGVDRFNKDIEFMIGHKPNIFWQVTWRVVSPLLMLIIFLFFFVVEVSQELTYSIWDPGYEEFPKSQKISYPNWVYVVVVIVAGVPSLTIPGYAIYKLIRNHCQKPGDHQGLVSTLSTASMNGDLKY
T3 sequence (Q9HBJ8 15-222 partner): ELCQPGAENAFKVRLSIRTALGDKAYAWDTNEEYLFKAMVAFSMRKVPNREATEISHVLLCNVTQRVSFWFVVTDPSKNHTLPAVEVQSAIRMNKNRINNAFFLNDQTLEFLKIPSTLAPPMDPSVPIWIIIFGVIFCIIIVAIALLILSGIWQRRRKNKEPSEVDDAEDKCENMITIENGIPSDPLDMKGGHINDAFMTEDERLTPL

[3] = target: T3, hB^0AT1 (human SLC6A19) co-expressed with human Collectrin; test: d5-phenylalanine uptake kinetics, LC-MS/MS; type: cell-based; details: labelled compound; 100 mM NaCl, pH 7.4, 37 °C, no inhibitor

T1 sequence (Q9BYF1 18-805 partner, one chain of several): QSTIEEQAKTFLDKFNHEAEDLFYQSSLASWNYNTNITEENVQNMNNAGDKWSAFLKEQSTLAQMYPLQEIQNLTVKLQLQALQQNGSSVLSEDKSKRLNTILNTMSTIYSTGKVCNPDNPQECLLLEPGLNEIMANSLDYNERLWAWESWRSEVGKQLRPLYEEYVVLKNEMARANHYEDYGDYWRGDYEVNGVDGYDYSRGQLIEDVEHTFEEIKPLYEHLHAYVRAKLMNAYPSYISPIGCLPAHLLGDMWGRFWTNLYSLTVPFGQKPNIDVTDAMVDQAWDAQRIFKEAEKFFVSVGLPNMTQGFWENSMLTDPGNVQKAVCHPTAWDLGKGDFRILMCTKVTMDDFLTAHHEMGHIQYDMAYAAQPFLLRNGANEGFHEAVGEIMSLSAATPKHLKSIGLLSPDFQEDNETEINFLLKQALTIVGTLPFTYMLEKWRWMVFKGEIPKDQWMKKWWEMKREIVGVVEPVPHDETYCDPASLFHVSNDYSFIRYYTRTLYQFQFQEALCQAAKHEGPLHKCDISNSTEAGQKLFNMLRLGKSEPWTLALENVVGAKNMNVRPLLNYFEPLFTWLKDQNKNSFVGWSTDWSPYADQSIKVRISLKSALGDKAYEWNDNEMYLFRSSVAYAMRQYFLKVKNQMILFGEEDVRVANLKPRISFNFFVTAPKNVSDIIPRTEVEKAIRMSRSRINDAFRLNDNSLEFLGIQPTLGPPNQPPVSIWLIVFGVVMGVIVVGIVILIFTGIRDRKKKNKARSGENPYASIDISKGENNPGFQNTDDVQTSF

Row | Kd (hB^0AT1-ACE2 complex) [nM] | IC50 [1] [nM] | IC50 [2] [nM] | Km [3] [µM] | Molecule
1 | 472 | > 10000 | 970 | – | CCNC(=O)/C=C/c1cccc(Br)c1 [compound 1, Cinromide]
2 | – | – | – | 866 ± 144 | d5-phenylalanine
3 | 140 | 1980 | 5500 | – | CN(C)C(=O)CNC(=O)/C=C/c1ccc(C(F)(F)F)cc1 [compound 2]
4 | 47 | 295 | 513 | – | O=C(/C=C/c1ccc(C(F)(F)F)cc1)NCC(=O)N1CCNC(=O)C1 [compound 3]
